Legend:
human DGAT1 = target: T1, human DGAT1 (Homo sapiens, UniProt O75907); assay: DGAT Scintillation Proximity Assay (SPA) with membranes of insect cells expressing human flagtag DGAT1; assay type: biochemical; conditions: read-out: hDGAT1 IC50
T1 construct: made in house; host or cells: insect cells (sf9, sf21 or High Five) infected with baculovirus; total cell membranes
T1 sequence (O75907 1-488): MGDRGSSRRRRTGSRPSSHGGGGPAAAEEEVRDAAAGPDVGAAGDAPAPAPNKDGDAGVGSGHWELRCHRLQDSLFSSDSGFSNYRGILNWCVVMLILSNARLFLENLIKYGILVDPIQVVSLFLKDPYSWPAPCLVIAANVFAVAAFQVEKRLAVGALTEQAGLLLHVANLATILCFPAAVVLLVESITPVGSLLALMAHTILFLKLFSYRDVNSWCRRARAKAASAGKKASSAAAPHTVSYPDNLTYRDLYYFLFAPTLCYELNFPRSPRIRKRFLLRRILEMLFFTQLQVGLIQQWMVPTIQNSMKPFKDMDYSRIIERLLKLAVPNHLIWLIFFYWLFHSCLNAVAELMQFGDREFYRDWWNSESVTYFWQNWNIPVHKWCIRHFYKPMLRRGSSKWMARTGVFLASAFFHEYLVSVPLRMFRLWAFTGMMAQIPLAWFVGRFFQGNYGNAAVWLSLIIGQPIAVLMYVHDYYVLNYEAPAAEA
Description: In such an assay human DGAT1 is cloned from a human liver cDNA library. PCR is used to add a restriction site and flag epitope at the most 5′ end and a restriction site at the 3′ end of the sequence. Thereafter, human flagtag (FT) DGAT1 baculovirus may be generated using a Bac-to-Bac Baculovirus Expression System® (Invitrogen). Insect cells (e.g., sf9, sf2 1, or High Five) are infected for 24 to 72 h and collected by centrifugation. Cell pellets are resuspended in homogenization buffer and lysed using a homogenization device, such as a Microfluidizer. Total cell membranes are collected by ultracentrifugation at 45,000 rpm for 1 h.
A small aliquot (0.2 μg/well) of membrane is incubated with 10 μM compound or mercuric chloride (as positive control for inhibition) in the presence of enzyme substrate, dioleoyl glycerol (200 μM) in 384 well plates, final volume 50 gL per well. […] The reaction is stopped by adding Wheat Germ Agglutinin (WGA) SPA beads (0.2 mg) in mercuric chloride. Cell membranes are allowed to couple to the beads overnight. The signal can be measured using, for example, a Chemiluminescence Image Plate Reader (CLIPR) or TopCount device.

| SMILES | IC50 (human DGAT1) [nM] | melting point |
| --- | --- | --- |
| CC1(C)Oc2ncnc(N)c2N=C1c1ccc([C@H]2CC[C@H](CCc3cc(O)[nH]n3)CC2)cc1 [Example 2-172] | 10 to 100 | > 250 °C |
| CC(C)(O)C(=O)N1CCN(C[C@H]2CC[C@H](c3ccc(C4=Nc5c(N)ncnc5OC4(C)C)cc3)CC2)CC1 [Example 2-248] | 10 to 100 | 207 to 208 °C |
| Nc1ncnc2c1N=C(c1ccc(-c3ccccc3)cc1)CO2 [Example 1-11] | > 100 | > 250 °C |
| CC1(C)Oc2ncnc(N)c2N=C1c1ccc([C@H]2CC[C@H](CCC(=O)O)CC2)cc1 | – | > 250 °C |
| CC1(C)Oc2ncnc(N)c2NC1c1ccc(-c2ccc(CC(=O)O)cc2)cc1 (centres unmarked) [Example 2-54] | 10 to 100 | 267 °C (dec.) |
| Cc1ccc(S(=O)(=O)NCC[C@H]2CC[C@H](c3ccc(C4=Nc5c(N)ncnc5OC4(C)C)cc3)CC2)cc1 [Example 2-175] | 10 to 100 | 230 to 231 °C |
| CN(C(=O)CO)[C@H]1CC[C@H](c2ccc(C3=Nc4c(N)ncnc4OC3(C)C)cc2)CC1 [Example 2-105] | 10 to 100 | > 250 °C |
| Cc1nc(N)c2c(n1)OC(C)(C)C(c1ccc([C@H]3CC[C@H](CS(=O)(=O)CC(=O)O)CC3)cc1)=N2 [Example 2-261] | 10 to 100 | 225 to 227 °C |
| Cc1nc(N)c2c(n1)OC(C)(C)C(c1ccc([C@H]3CC[C@H](CN4CCOC4=O)CC3)c(Cl)c1)=N2 [Example 6-17] | > 100 | > 250 °C |
| O=c1[nH]c2ncnc3c2n1C(c1ccc(Br)cc1)CO3 (centres unmarked) [Example 1-35] | > 100 | > 220 °C |
| CN(CCO)C(=O)C[C@H]1CC[C@H](c2ccc(C3=Nc4c(N)ncnc4OC3(C)C)cc2)CC1 [Example 2-99] | 10 to 100 | 113 to 115 °C |
| Nc1ncnc2c1N=C(c1ccc(C3CCCCC3)cc1)CO2 [Example 1-25] | > 100 | 219 to 221 °C |
| Cc1nc(N)c2c(n1)OC(C)(C)C(c1ccc([C@H]3CC[C@H](CCC(=O)O)CC3)cc1)=N2 [Example 2-191] | < 10 | > 250 °C |
| CC1(C)Oc2ncnc(N)c2N=C1c1ccc(N2CCCC2)cc1 [Example 4-6] | > 100 | 191 to 196 °C |
| CC(C)(CO)NC(=O)C[C@H]1CC[C@H](c2ccc(C3=Nc4c(N)ncnc4OC3(C)C)cc2)CC1 [Example 2-98] | 10 to 100 | 131 to 133 °C |
| CC1(C)Oc2ncnc(N)c2N=C1c1ccc([C@H]2CC[C@H](NS(N)(=O)=O)CC2)cc1 [Example 2-218] | 10 to 100 | 212 °C |
| CCOC(=O)C=C1CCC(c2ccc(C3=Nc4c(N)ncnc4OC3(C)C)cc2)CC1 (centres unmarked) [Example 2-39] | > 100 | 207 to 208 °C |
| Cc1nc(N)c2c(n1)OC(C)(C)C(c1ccc([C@H]3CC[C@H](CN4CCC(O)C4=O)CC3)cc1)=N2 (some centres unmarked) [Example 2-166] | 10 to 100 | 225 to 233 °C |
| CC1(C)Oc2ncnc(N)c2NC1c1ccc([C@H]2CC[C@H](Cc3nn[nH]n3)CC2)cc1 (some centres unmarked) [Example 2-76] | 10 to 100 | > 250 °C |
| CC1(C)Oc2ncnc(N)c2N=C1c1ccc([C@H]2CC[C@H](CCC(N)=O)CC2)cc1 [Example 2-5] | 10 to 100 | 244 to 246 °C |
| Cc1ncc(C[C@H]2CC[C@H](c3ccc(C4=Nc5c(N)ncnc5OC4(C)C)cc3)CC2)[nH]1 [Example 2-113] | 10 to 100 | 172 to 173 °C |
| CC1(C)Oc2nccc(N)c2N=C1c1ccc([C@H]2CC[C@H](CC(=O)O)CC2)cc1 [Example 2-117] | 10 to 100 | > 250 °C |

| SMILES | IC50 (human DGAT1) [nM] | melting point |
| --- | --- | --- |
| CC1(C)Oc2ncnc(N)c2N=C1c1ccc([C@H]2CC[C@H](Cc3nn[nH]n3)CC2)cc1 | – | > 250 °C |
| Cc1nc(N)c2c(n1)OC(C)(C)C(c1ccc([C@H]3CC[C@H](CN4CCCC(O)C4=O)CC3)cc1)=N2 (some centres unmarked) [Example 2-170] | – | 228 to 229 °C |
| CC1(C)Oc2ncnc(N)c2N=C1c1ccc(-c2ccc(CC(=O)O)cc2)cc1 | – | > 270 °C |
| CCCCc1ccc(C2=Nc3c(N)ncnc3OC2(C)C)cc1 | – | 157 to 160 °C |
| Cc1nc(N)c2c(n1)OC(C)(C)C(c1ccc([C@H]3CC[C@H](CC(=O)O)CC3)cc1)=N2 | – | > 250 °C |
| CC1(C)Oc2ncnc(N)c2N=C1c1ccc(C2CCC(O)CC2)cc1 (centres unmarked) | – | 246 to 248 °C |
| CC1(C)Oc2ncnc(N)c2N=C1c1ccc([C@H]2CC[C@H](C(=O)O)CC2)cc1 | – | > 250 °C |
| CC(C)c1ccc(C2=Nc3c(N)ncnc3OC2(C)C)cc1 | – | 175 to 179 °C |
| CC1(C)Oc2ncnc(N)c2N=C1c1ccc(Br)cc1 | – | 201 to 203 °C |
| Cc1nc(N)c2c(n1)OC(C)(C)C(c1ccc([C@H]3CC[C@H](Cc4n[nH]c(=O)[nH]4)CC3)c(Cl)c1)=N2 [Example 6-5] | – | > 300 °C |
| Nc1ncnc2c1N=C(c1ccc(Br)cc1)CO2 | – | > 200 °C |
| CC1(C)Oc2ncnc(N)c2N=C1c1ccc(C2CCC(F)(F)CC2)cc1 | – | 226 to 227 °C |
| CC1(C)Oc2ncnc(N)c2N=C1c1ccc(O)cc1 | – | 245 to 246 °C |
| CC1(C)Oc2ncnc(N)c2N=C1c1ccc(C(C)(C)C(=O)O)cc1 | – | > 250 °C |
| CC1(C)Oc2ncnc(N)c2N=C1c1ccc(F)cc1 | – | 189 to 190 °C |
| CC1(C)Oc2ncnc(N)c2N=C1c1ccc(C2CCCCC2)cc1 | – | 186 to 187 °C |
| Cc1nc(N)c2c(n1)OCC(c1ccc(Br)cc1)=N2 | – | > 220 °C |
| CC1(C)Oc2ncnc(N)c2N=C1c1ccc(C(C)(C)C)cc1 | – | 220 °C |
| Nc1ncnc2c1NC(c1ccc(Br)cc1)CO2 (centres unmarked) | – | > 200 °C |
| CC1(C)Oc2ncnc(N)c2N=C1c1ccc(C2CCC(=O)CC2)cc1 | – | > 240 °C |
| Cc1nc(N)c2c(n1)OC(C)(C)C(c1ccc([C@H]3CC[C@H](CCc4noc(C(F)(F)F)n4)CC3)cc1)=N2 [Example 2-199] | – | 198 to 200 °C |
| CC1(C)Oc2ncnc(N)c2N=C1c1ccc(N2CCOCC2)cc1 | – | 214 to 219 °C |

| SMILES | IC50 (human DGAT1) [nM] | melting point |
| --- | --- | --- |
| CC1(C)Oc2ncnc(N)c2N=C1c1ccc(Cl)cc1 | – | 210 to 211 °C |
| CC1Oc2ncnc(N)c2N=C1c1ccc(Br)cc1 (centres unmarked) | – | 222 to 224 °C |
| CC1(C)Oc2ncnc(N)c2N=C1c1ccc([C@H]2CC[C@H](CS(N)(=O)=O)CC2)cc1 | – | > 250 °C |
| Cc1ccc(C2=Nc3c(N)ncnc3OC2(C)C)cc1 | – | 161 to 162 °C |
| Cc1nc(N)c2c(n1)OC(C)(C)C(c1ccc([C@H]3CC[C@H](CC(=O)O)CC3)c(O)c1)=N2 [Example 6-7] | – | > 280 °C |
| CC1(C)Oc2ncnc(N)c2N=C1c1ccc([C@H]2CC[C@H](CC(N)=O)CC2)cc1 | – | 224 to 226 °C |
| CC1(C)Oc2ncnc(N)c2N=C1c1ccc(N2CCCCC2)cc1 | – | 191 to 193 °C |
| CCc1ccc(C2=Nc3c(N)ncnc3OC2(C)C)cc1 | – | 135 to 136 °C |
| CCCc1ccc(C2=Nc3c(N)ncnc3OC2(C)C)cc1 | – | 185 to 186 °C |
| CC(C(=O)O)[C@H]1CC[C@H](c2ccc(C3=Cc4c(N)ncnc4OC3(C)C)cc2)CC1 (some centres unmarked) [Example 10-31] | 10 to 100 | – |
| CC1(C)Oc2ncnc(N)c2N=C1c1ccc(C2CCC(=CC(=O)NCCO)CC2)cc1 (centres unmarked) [Example 2-48] | 10 to 100 | – |
| CN1CCN(C[C@H]2CC[C@H](c3ccc(C4=Nc5c(N)ncnc5OC4(C)C)cc3)CC2)CC1 [Example 2-230] | 10 to 100 | – |
| COc1ccc(C2=Nc3c(N)ncnc3OC2(C)C)cc1 | – | 183 to 184 °C |
| CC1(C)Oc2ncnc(N)c2N=C1c1ccccc1 | – | 189 to 190 °C |
| CC1(C)Oc2ncnc(N)c2N=C1c1ccc(-c2ccccc2)cc1 | – | 218 to 219 °C |
| CC1(C)Oc2ncnc(N)c2NC1c1ccc(Br)cc1 (centres unmarked) | – | > 220 °C |
| Cc1nc(N)c2c(n1)OC(C)(C)C(c1ccc([C@H]3CC[C@H](Cc4noc(=O)[nH]4)CC3)c(Cl)c1)=N2 [Example 6-6] | – | > 282 °C |
| CC1(C)Oc2ncnc(N)c2NC1c1ccc([C@H]2CC[C@H](CCO)CC2)cc1 (some centres unmarked) [Example 2-81] | > 100 | – |
| CCC(C(=O)O)C1CCC(c2ccc(C3=Nc4c(N)nc(C(F)(F)F)nc4OC3(C)C)cc2)CC1 (centres unmarked) [Example 10-28] | < 10 | – |
| CC1(C)Oc2ncnc(N)c2N=C1c1ccc(N2CCC(Cc3ccccc3)CC2)cc1 [Example 4-2] | > 100 | – |
| CC(C(=O)O)C1CCC2(CCc3cc(C4=Nc5c(N)nc(C(F)(F)F)nc5OC4(C)C)ccc32)CC1 (centres unmarked) [Example 10-17] | < 10 | – |
